Measured values taken from patent US4499088A, “Cephem compounds” (Fujisawa Pharmaceutical Co., Ltd., priority 1983, dated 1985).

Legend:
Proteus mirabilis 18 = experiment: Minimal inhibitory concentration, two-fold agar-plate dilution method; type: cell-based; details: HI-agar, 37° C., 20 hours
Method: (§1) (A) Minimal inhibitory concentration (1) Test Method In vitro antibacterial activity was determined by the two-fold agar-plate dilution method as described below. One loopful of an overnight culture of each test strain in Trypticase-soy broth (10^8 viable cells per ml) was streaked on heart infusion agar (HI-agar) containing graded concentrations of representative test compound, and the minimal inhibitory concentration (MIC) was expressed in terms of μg/ml after incubation at 37° C. for 20 hours.

Proteus vulgaris 2 = experiment: as above; type: cell-based; details: HI-agar, 37° C., 20 hours
Method: as §1

Urinary excretion = type: in vivo; details: rat; rats, oral administration of 100 mg/kg, urine 0 to 6 and 6 to 24 hours, bioassay; read-out: Urinary recovery in 24 hours (%)
Method: Urine of rats was collected with a urine collector at 0 to 6, and 6 to 24 hours after oral administration of 100 mg/kg of the test antibiotic. The antibiotic levels in the urine samples were bioassayed with the standard solution prepared with M/15 phosphate buffer (pH 7.0) and the urinary recovery in 24 hours was calculated.

in vivo = details: rat, po, 100 mg/kg
Method: Rats anesthetized with pentobarbital were fixed in supine position, and a polyethylene cannula was inserted into the bile duct. Bile samples were collected at 0 to 3, 3 to 6, and 6 to 24 hours after oral administration of 100 mg/kg of the test antibiotic. The antibiotic levels in the bile samples were bioassayed with the standard solutions prepared with M/15 phosphate buffer (pH 7.0) and the biliary recovery in 24 hours were calculated.

O=C(O)CO/N=C(\C(=O)NC1C(=O)N2C(C(=O)O)=C(CSc3ccc4nnnn4n3)CSC12)c1cscn1 (stereo not drawn) [Test Compound (1), 7-[2-Carboxymethoxyimino-2-(4-thiazolyl)acetamido]-3-(tetrazolo[1,5-b]pyridazin-6-yl)thiomethyl-3-cephem-4-carboxylic acid (syn isomer)]
MIC (Proteus mirabilis 18): < 0.025 µg/mL
MIC (Proteus vulgaris 2): < 0.025 µg/mL
dose excreted at 24 h (Urinary excretion): 20.2%
dose excreted at 24 h (in vivo): 8.97%
